Experiment: Apparent permeability across apical to basolateral side in human Caco-2 cells monolayer
Format: ADME, cell-based

| Papp | Compound |
| --- | --- |
| Impermeable | CSc1nc(-c2cccc(NC(=O)c3c(F)ccc(O)c3CN3C(=O)c4ccccc4C3=O)c2)c(-c2ccnc(NC(C)=O)c2)[nH]1 |
| Impermeable | C=CC(=O)Nc1ccc(OC)c(Nc2cc(-c3[nH]c(SC)nc3-c3cccc(NC(=O)c4c(F)ccc(O)c4CN4C(=O)c5ccccc5C4=O)c3)ccn2)c1 |
